Test results: patent publication US20120065257A1, “USE OF BENZO-FUSED HETEROCYLE SULFAMIDE DERIVATIVES FOR THE TREATMENT OF MIGRAINE” (priority 2006, published 2012)

How the values were obtained:
[1] = system: KCl-induced cortical spreading depression; assay: KCl-induced cortical spreading depression (CSD) assay as model of migraine; type: in vivo, Sprague-Dawley rats; conditions: 100 mg/kg/day p.o. for 35 days
Description: Cortical spreading depression (CSD) has been implicated in migraine and as a headache trigger, and can be evoked in experimental animals by electrical or chemical stimulation (Kunkler & Kraig, 2003; Lauritzen et al., 1982; Moskowitz, 1984).
Adult male Sprague-Dawley rats (250-600 g) were divided into two treatment groups: vehicle (0.5% methylcellulose; n=13) and Compound #8 (100 mg/kg/day, p.o.; n=7). Results were compared to historical positive controls with valproic acid at 200 mg/kg/day, i.p.
Vehicle or Compound #8 was administered orally once a day for 35 days. On the last day of treatment, rats continued to receive food and water ad libitum, and were given their daily oral dose of vehicle or Compound #8 approximately 1.5 h prior to CSD testing. Rats were anesthetized using isoflurane and intubated via a tracheotomy for mechanical ventilation. Body temperature, blood pressure and heart rate were monitored throughout the procedure to ensure homeostasis. […] The steady (DC) potential and electrocorticogram (EcoG) were recorded with glass micropipettes filled with 200 mM NaCl, […] below the dural surface. […] The number of KCL-induced CSDs was counted for 2 hours. Propagation speed was calculated from the distance (mm) between the recording electrodes 1 and 2, divided by the latency (min) between the CSDs recorded at these sites. […]

[2] = Body weight and systemic physiology monitoring during CSD testing; type: in vivo, Sprague-Dawley rats; conditions: 100 mg/kg/day p.o. for 35 days
Description: Vehicle or Compound #8 was administered orally once a day for 35 days. On the last day of treatment, rats continued to receive food and water ad libitum, and were given their daily oral dose of vehicle or Compound #8 approximately 1.5 h prior to CSD testing. Rats were anesthetized using isoflurane and intubated via a tracheotomy for mechanical ventilation. Body temperature, blood pressure and heart rate were monitored throughout the procedure to ensure homeostasis. Rats were placed in a stereotaxic frame and three burr holes were drilled under saline cooling over the right hemisphere at the following coordinates (mm from bregma): (1) posterior 4.5, lateral 2.0 (occipital cortex): KCL application; (2) posterior 0.5, lateral 2.0 (parietal cortex): recording site 1; (3) anterior 2, lateral 2 (frontal cortex): recording site 2. Dura overlying the occipital cortex was gently removed. The steady (DC) potential and electrocorticogram (EcoG) were recorded with glass micropipettes filled with 200 mM NaCl, […] below the dural surface. An Ag/AgCl reference electrode was placed subcutaneously in the neck. Following surgical preparation, the cortex was allowed to recover for 30 minutes under saline irrigation. Cortical spreading depressions were initiated by placing a cotton ball soaked with 1M KCl on the pial surface. The number of KCL-induced CSDs was counted for 2 hours. Propagation speed was calculated from the distance (mm) between the recording electrodes 1 and 2, divided by the latency (min) between the CSDs recorded at these sites.

[3] = system: KCl-induced cortical spreading depression; conditions: historical positive control, 200 mg/kg/day i.p. for 4 weeks; saline 18; p<0.05; cited from earlier work

Question: For `CN(C)S(=O)(=O)NCC1COc2ccccc2O1` (racemic) [Compound #6, N-(2,3-Dihydro-benzo[1,4]dioxin-2-ylmethyl)-N′,N′ dimethylsulfamide], which melting point is on record?
Answer: 76 to 78 °C

Question: With `CN(CC1COc2ccccc2O1)S(N)(=O)=O` (racemic) [Compound #7, N-(2,3-Dihydro-benzo[1,4]dioxin-2-ylmethyl)-N-methylsulfamide] as the compound, how does the melting point read?
Answer: 97 to 98 °C

Question: For `NS(=O)(=O)NC[C@H]1COc2cc(Cl)ccc2O1` [Compound #8, (2S)-(−)-N-(6-Chloro-2,3-dihydro-benzo[1,4]dioxin-2-ylmethyl)-sulfamide], which “CSDs (2 h) ≧ 5 mV (number of KCl-induced cortical spreading depressions)” value ([1]; 1M KCl topical, counted for 2 hours, vehicle 16 ± 3, p=0.12, not significant) is on record?
Answer: 14±3

Question: And the “Propagation Speed” value ([1]; vehicle 3.2 ± 1, p=0.06)?
Answer: 2.7±0.4 mm/min

Question: What about the “Physiological monitoring, including arterial pH, pCO2, pO2 and blood pressure, versus vehicle” value [2] of the same compound?
Answer: did not differ between the groups

Question: What about the “Systemic Physiology: pH (arterial)” value ([2]; vehicle 7.44 ± 0) of the same compound?
Answer: 7.42 ± 0.03

Question: What about the “Systemic Physiology: pCO2” value ([2]; vehicle 38 ± 3, in mmHg (unit assumed)) of the same compound?
Answer: 39 ± 3

Question: And the “Systemic Physiology: BP” value ([2]; vehicle 105 ± 14, in mmHg (unit assumed))?
Answer: 107 ± 18

Question: And the “Systemic Physiology: pO2” value ([2]; vehicle 162 ± 9, in mmHg (unit assumed))?
Answer: 157 ± 18

Question: And the Body weight ([2]; vehicle 401 ± 40)?
Answer: 418 ± 31 g

Question: With `NS(=O)(=O)NCC1CCc2ccccc2O1` (centres unmarked) [Compound #10, Chroman-2-ylmethylsulfamide] as the compound, how does the melting point read?
Answer: 100 to 101 °C

Question: Which melting point does the source give for `NS(=O)(=O)NCCC1COc2ccccc2O1` (centres unmarked) [Compound #16, 2-(2,3-Dihydro-benzo[1,4]dioxin-2-yl)-ethylsulfamide] here?
Answer: 101 to 103 °C

Question: With `NS(=O)(=O)NC[C@H]1COc2cc(Cl)c(Cl)cc2O1` [Compound #29, (2S)-(−)-N-(6,7 Dichloro-2,3-dihydro-benzo[1,4]dioxin-2-ylmethyl)-sulfamide] as the compound, how does the melting point read?
Answer: 119 to 121 °C

Question: Which “number of cortical spreading depressions” value [3] does the source give for `CCCC(CCC)C(=O)O` [valproate, valproic acid] here?
Answer: 14
